{
  "source": "patent US9612240B2",
  "about": "“Biomimetic chemical sensors using nanoelectronic readout of olfactory receptors” (The Trustees Of The University Of Pennsylvania, priority 2010, dated 2017)",
  "key": {"mOR203-1 [1]": {"tested_on": "mOR203-1", "experiment": "Vapor response of mOR-functionalized carbon nanotube transistor", "details": "for NT device response: FIG. 12A"}, "mOR203-1 [2]": {"tested_on": "mOR203-1", "details": "mOR203-1 expressed in HEK cells; cited from earlier work"}, "mOR256-17 [3]": {"biological_target": "T1, mOR256-17 (Mus musculus, UniProt P23275)", "T1 sequence (P23275 1-312)": "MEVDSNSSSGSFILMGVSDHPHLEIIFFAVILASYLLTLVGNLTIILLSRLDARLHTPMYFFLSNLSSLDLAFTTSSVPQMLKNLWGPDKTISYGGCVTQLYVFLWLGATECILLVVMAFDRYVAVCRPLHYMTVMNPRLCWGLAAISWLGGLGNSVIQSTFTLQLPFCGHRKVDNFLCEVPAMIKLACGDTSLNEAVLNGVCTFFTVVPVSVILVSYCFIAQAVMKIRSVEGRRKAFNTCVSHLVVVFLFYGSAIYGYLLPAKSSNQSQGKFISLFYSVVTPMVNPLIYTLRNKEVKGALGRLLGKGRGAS", "details": "cited from earlier work"}, "mOR174-9": {"biological_target": "T2, mOR174-9 (Mus musculus, UniProt Q920P2)", "T2 sequence (Q920P2 1-313)": "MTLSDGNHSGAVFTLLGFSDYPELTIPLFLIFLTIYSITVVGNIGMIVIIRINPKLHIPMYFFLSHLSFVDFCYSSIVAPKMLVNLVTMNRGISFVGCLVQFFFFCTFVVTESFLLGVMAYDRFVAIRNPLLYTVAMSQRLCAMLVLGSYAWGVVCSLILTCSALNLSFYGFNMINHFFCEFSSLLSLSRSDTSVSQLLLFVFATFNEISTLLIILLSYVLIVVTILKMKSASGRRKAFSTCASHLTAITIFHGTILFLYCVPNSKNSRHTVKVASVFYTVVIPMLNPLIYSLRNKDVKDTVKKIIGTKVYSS", "experiment": "Vapor response of mOR-functionalized carbon nanotube transistor"}, "[4]": {"experiment": "Control vapor response of bare nanotube devices and devices with Ni-NTA and empty digitonin micelles", "details": "bare NT transistors and devices treated with Ni-NTA and empty digitonin micelles"}, "[5]": {"tested_on": "mouse olfactory receptor proteins (mORs)", "experiment": "Vapor response of mOR-functionalized NT devices, mOR not specified", "assay_type": "binding", "details": "all three mORs"}, "mOR256-17 [6]": {"biological_target": "T1, mOR256-17", "experiment": "Xenopus oocyte expression with robotic electrophysiology", "details": "mOR 256-17"}, "mOR256-17 [7]": {"biological_target": "T1, mOR256-17", "experiment": "Vapor response of mOR-functionalized carbon nanotube transistor, high-speed data acquisition", "assay_type": "binding", "design": "made in house; host or cells: Sf9 insect cells (Bac-to-Bac, pFastBac HT, Invitrogen)", "details": "cyclohexanone 2250 ppm, mOR 256-17 in nanodiscs"}, "[8]": {"details": "mOR203-1 in digitonin micelles, single sensor, FIG. 4"}},
  "note": "Where “and” joins values, the source holds several entries; their conditions need not be identical. Equal entries are not always repeated. Entries after “also recorded” stand apart in the source; their conditions may differ. Where two headings read alike, the source gives them in different places.",
  "data": [
    {"smiles": "CCCCCC(C)=O", "note": "[2-heptanone]", "values": [
      {"measurement": "NT device response with both packaging methods", "setting": "mOR203-1 [1]; mOR 203-1, surfactant stabilized and nanodisc stabilized", "value": "expected response"},
      {"measurement": "NT device response", "setting": "mOR203-1 [1]; mOR203-1 in digitonin micelles", "value": "strong response"},
      {"measurement": "change in conductance", "setting": "mOR203-1 [1]; [8]", "value": "negative changes in conductance"},
      {"measurement": "HEK data response", "setting": "mOR203-1 [2]", "value": "strong response"},
      {"measurement": "response of mOR256-17 according to published reports", "setting": "mOR256-17 [3]", "value": "not"}
    ]},
    {"smiles": "C=CCc1ccc(O)c(OC)c1", "note": "[eugenol]", "values": [
      {"measurement": "NT device response shared by both packaging methods", "setting": "mOR174-9", "value": "expected response"},
      {"measurement": "sensing response (change in device current)", "setting": "mOR174-9", "value": "large positive responses; also recorded: large positive sensing response"},
      {"measurement": "change in conductance", "setting": "mOR203-1 [1]; [8]", "value": "positive changes in conductance"},
      {"measurement": "response of control devices without mOR", "setting": "[4]", "value": "no change in conductance"}
    ]},
    {"smiles": "CC(=O)c1ccccc1", "note": "[acetophenone]", "values": [
      {"measurement": "NT device response", "setting": "mOR203-1 [1]; mOR203-1 in digitonin micelles", "value": "lack of response"},
      {"measurement": "HEK data response", "setting": "mOR203-1 [2]", "value": "lack of response"}
    ]},
    {"smiles": "CCCCCCC=O", "note": "[heptanal]", "values": [
      {"measurement": "NT device response", "setting": "mOR203-1 [1]; mOR203-1 in digitonin micelles", "value": "lack of response"},
      {"measurement": "HEK data response", "setting": "mOR203-1 [2]", "value": "lack of response"},
      {"measurement": "response of mOR256-17 according to published reports", "setting": "mOR256-17 [3]", "value": "not"}
    ]},
    {"smiles": "CCCCCOC(C)=O", "note": "[n-amyl acetate]", "values": [
      {"measurement": "change in conductance", "setting": "mOR203-1 [1]; [8]", "value": "negative changes in conductance"}
    ]},
    {"smiles": "O=C1CCCCC1", "note": "[cyclohexanone]", "values": [
      {"measurement": "response of the inventive devices", "setting": "[5]", "value": "strong response"},
      {"measurement": "NT device response shared by both packaging methods", "setting": "mOR174-9; mOR 174-9, surfactant stabilized and nanodisc stabilized", "value": "response shared between the two packaging methods"},
      {"measurement": "oocyte measurement response, in words", "setting": "mOR256-17 [6]", "value": "show a response"},
      {"measurement": "response of control devices without mOR", "setting": "[4]", "value": "small response"},
      {"measurement": "response time constant, first of double exponential fit (FIG. 11D)", "setting": "mOR256-17 [7]", "value": "2.06 ± 0.01", "unit": "s"},
      {"measurement": "response time constant, second of double exponential fit (FIG. 11D)", "setting": "mOR256-17 [7]", "value": "25.51 ± 0.04", "unit": "s"},
      {"measurement": "sensing response time constant, first of double exponential fit (FIG. 3)", "setting": "mOR256-17 [7]", "value": "9.1 s and 9.08 ± 0.04 s"},
      {"measurement": "sensing response time constant, second of double exponential fit (FIG. 3)", "setting": "mOR256-17 [7]", "value": "41.2 s and 41.2 ± 0.4 s"},
      {"measurement": "response of mOR256-17 according to published reports", "setting": "mOR256-17 [3]", "value": "responds"}
    ]},
    {"smiles": "COC(=O)c1ccccc1", "note": "[methyl benzoate]", "values": [
      {"measurement": "change in conductance", "setting": "mOR203-1 [1]", "value": "no change in conductance"}
    ]}
  ]
}
